Test results: PMC10714400, “Antimicrobial Peptide–Peptoid Hybrids with and without Membrane Disruption” (ACS Infectious Diseases, 2023)
≈ marks a conversion by molar mass, not a printed value. Where a SMILES comes first, the peptide text is derived from it. [ ]: non-standard residue; d: D form. Nleu = CC(C)CNCC(=O)O; Nlys = NCCCCNCC(=O)O

Tests used:
[1] = test system: HEK293 cells; experiment: Cell viability assay by Alamar blue; settings: read-out: Toxicity on HEK293 cells; CSV
Description: The data are represented as the mean value ± SD, n = 3. […] (c) Vesicle leakage assay for a selection of compounds. Lipid vesicles made of EYPG or EYPC were suspended in a buffer (10 mM TRIS, 107 mM NaCl, pH 7.4). After 45 s, the indicated compound was added to reach the desired concentration. After 240 s, 30 μL of 1.2% TritonX-100 was added for full fluorescein release. […] See Supporting Information for the full curves, all of the data, and procedures.
HEK293 cells were cultured and maintained in DMEM high glucose (Dulbecco’s modified Eagle medium, Sigma Aldrich) medium supplemented with 10% FBS (Sigma Aldrich) and 1% penicillin/streptomycin. A549 cells were cultured and maintained in RPMI-1640 medium (Sigma Aldrich), supplemented with 10% FBS (Sigma Aldrich) and 1% penicillin/streptomycin. The cells were handled and subcultured according to the manufacturer instructions. Cells were incubated in a humidified incubator at 37 °C in the presence of 5% CO2.
Assays on HEK293, A549 cells were performed as described earlier.[74] […]

[2] = test system: S. aureus Newman; settings: Newman, 4 h, pH 8.5
Description: (§1) Antimicrobial activity was assayed for all the peptide–peptoids against P. aeruginosa PAO1, K. pneumoniae NCTC418, E. coli W3110, A. baumannii ATCC 19606, methicillin-resistant S. aureus COL (MRSA), and for selected peptides on P. aeruginosa PA14 and the polymyxin-B-resistant derivatives PA14 4.13, PA14 4.18, PA14 2P4, as well as the clinical isolates ZEM-1A and ZEM9A, K. pneumoniae OXA-48, S. aureus Newman, Enterobacter cloacae, Stenotrophomonas maltophilia, Burkholderia cenocepacia, and Staphylococus epidermidis. To determine the Minimal Inhibitory Concentration (MIC), the Broth Microdilution method was used.[72] A colony of bacteria was picked and grown in LB medium overnight at 37 °C.
(§2) To each well was finally added 4 μL of the diluted bacterial suspension (see above), corresponding to approximately 5 × 10^5 CFU. For each test, two columns of the plate were kept for sterility control (medium only), growth control (medium with bacterial inoculum, no compound). The positive control, Polymyxin B (starting with a concentration of 16 μg/mL) in MH medium with bacterial inocula, was introduced in the two lines of the plate. […] Next, 15 μL of 3-(4,5-dimethylthiazol-2-yl)-2,5-diphenyltetrazolium bromide (MTT)[73] (1 mg/mL in sterilized MilliQ deionized water) were added to each well, and the plates were incubated for 20–30 min at room temperature. The minimal inhibitory concentration (MIC) was defined as the lowest concentration of the compound that inhibits the visible growth of the tested bacteria (yellow) with the unaided eye.

[3] = test system: P. aeruginosa PA14; settings: PA14, pH 8.5
Description: as §1, §2

[4] = test system: PA14 4.13 (phoQ); settings: CSV; […] MH at pH 8.5
Description: as §1
(§3) To each well was finally added 4 μL of the diluted bacterial suspension (see above), corresponding to approximately 5 × 10^5 CFU. For each test, two columns of the plate were kept for sterility control (medium only), growth control (medium with bacterial inoculum, no compound). The positive control, Polymyxin B (starting with a concentration of 16 μg/mL) in MH medium with bacterial inocula, was introduced in the two lines of the plate. The plates were incubated at 37 °C for ca. 18 h under static conditions. Next, 15 μL of 3-(4,5-dimethylthiazol-2-yl)-2,5-diphenyltetrazolium bromide (MTT)[73] (1 mg/mL in sterilized MilliQ deionized water) were added to each well, and the plates were incubated for 20–30 min at room temperature. The minimal inhibitory concentration (MIC) was defined as the lowest concentration of the compound that inhibits the visible growth of the tested bacteria (yellow) with the unaided eye.

[5] = test system: P. aeruginosa PAO1
Description: as §1, §3

[6] = test system: S. aureus COL (MRSA)
Description: as §1, §3

[7] = test system: K. pneumoniae NCTC418
Description: as §1, §3

[8] = test system: PA14 2P4 (pmrB); settings: CSV; […] MH at pH 8.5
Description: as §1, §3

[9] = test system: PA14 4.18 (pmrB); settings: […] MH at pH 8.5
Description: as §1, §3

[10] = test system: A. baumannii ATCC19606
Description: as §1, §3

[11] = test system: E. coli W3110
Description: as §1, §3

[12] = Circular dichroism, α-helical content; assay type: physicochemical; settings: 0.1 mg/mL; for CD %α with 5 mM DPC: 10 mM phosphate buffer pH 7.4, 5 mM DPC; for CD %α with 20% TFE: 10 mM phosphate buffer pH 7.4, 20% TFE
[13] = test system: human red blood cells (hRBC); experiment: Minimum hemolytic concentration (MHC); assay type: cell-based
Description: We also measured minimal hemolysis concentrations (MHC) on human red blood cells by serial 2-fold dilution as an indication of toxicity against eukaryotic cells (Table 1).

Structure (SMILES): CC(C)C[C@H](NC(=O)CN(CCCCN)C(=O)[C@H](CC(C)C)NC(=O)[C@H](CC(C)C)NC(=O)[C@H](CCCCN)NC(=O)[C@H](CC(C)C)NC(=O)[C@H](CC(C)C)NC(=O)[C@H](CCCCN)NC(=O)CNCCCCN)C(=O)N[C@@H](CC(C)C)C(=O)N(CC(N)=O)CC(C)C [EB2, kKLLKLLkLLl] (H-[Nlys]KLLKLL[Nlys]LL[Nleu]-NH2)
- IC50 [1]: > 200 µM
- MIC S. aureus Newman [2]: 2 to 4 µg/mL
- MIC P. aeruginosa PA14 [3]: 2 to 4 µg/mL
- MIC P. aeruginosa PA14 4.13, […] MH at pH 8.5 [4]: 4 ug/mL
- MIC P. aeruginosa PAO1, full MH at pH 7.4 ([5]; PAO1, 4 h, pH 7.4): 32 ug/mL
- MIC P. aeruginosa PAO1, full MH at pH 8.5 ([5]; PAO1, 4 h, pH 8.5): 16 ug/mL
- MIC P. aeruginosa PAO1 […] 7.4 ([5]; Table S2, […] MH, pH 7.4): 16 µg/mL (≈ 12.1 µM)
- MIC P. aeruginosa PAO1 […] 8.5 ([5]; Table S2, […] MH, pH 8.5): 8 µg/mL (≈ 6.05 µM)
- MIC P. aeruginosa PAO1 Full MH 7.4 ([5]; Table S2, full MH, pH 7.4): 32 µg/mL (≈ 24.2 µM)
- MIC P. aeruginosa PAO1 Full MH 8.5 ([5]; Table S2, full MH, pH 8.5): 16 µg/mL (≈ 12.1 µM)
- MIC S. aureus COL (MRSA), full MH at pH 7.4 ([6]; COL, 4 h, pH 7.4): >32 ug/mL
- MIC S. aureus COL (MRSA), full MH at pH 8.5 ([6]; COL, 4 h, pH 8.5): 32 ug/mL
- MIC S. aureus COL (MRSA) […] 7.4 ([6]; Table S2, […] MH, pH 7.4): 32 µg/mL (≈ 24.2 µM)
- MIC S. aureus COL (MRSA) […] 8.5 ([6]; Table S2, […] MH, pH 8.5): 2 µg/mL (≈ 1.51 µM)
- MIC S. aureus COL (MRSA) Full MH 7.4 ([6]; Table S2, full MH, pH 7.4): > 32 µg/mL
- MIC S. aureus COL (MRSA) Full MH 8.5 ([6]; Table S2, full MH, pH 8.5): 32 µg/mL (≈ 24.2 µM)
- MIC K. pneumoniae NCTC418, full MH at pH 7.4 ([7]; NCTC418, 4 h, pH 7.4): >32 ug/mL
- MIC K. pneumoniae NCTC418, full MH at pH 8.5 ([7]; NCTC418, 4 h, pH 8.5): >32 ug/mL
- MIC K. pneumoniae NCTC418 […] 7.4 ([7]; Table S2, […] MH, pH 7.4): > 32 µg/mL
- MIC K. pneumoniae NCTC418 […] 8.5 ([7]; Table S2, […] MH, pH 8.5): > 32 µg/mL
- MIC K. pneumoniae NCTC418 Full MH 7.4 ([7]; Table S2, full MH, pH 7.4): > 32 µg/mL
- MIC K. pneumoniae NCTC418 Full MH 8.5 ([7]; Table S2, full MH, pH 8.5): > 32 µg/mL
- MIC P. aeruginosa PA14 2P4, […] MH at pH 8.5 [8]: 8 ug/mL
- MIC P. aeruginosa PA14 4.18, […] MH at pH 8.5 ([9]; CSV): 6 ug/mL
- MIC P. aeruginosa PA14 4.18 ([9]; Table S3): 4 to 8 µg/mL
- MIC A. baumannii ATCC19606, full MH at pH 7.4 ([10]; ATCC19606, 4 h, pH 7.4): >32 ug/mL
- MIC A. baumannii ATCC19606 […] 7.4 ([10]; Table S2, […] MH, pH 7.4): 16 µg/mL (≈ 12.1 µM)
- MIC A. baumannii ATCC19606 […] 8.5 ([10]; Table S2, […] MH, pH 8.5): 8 µg/mL (≈ 6.05 µM)
- MIC A. baumannii ATCC19606 Full MH 7.4 ([10]; Table S2, full MH, pH 7.4): > 32 µg/mL
- MIC A. baumannii ATCC19606 Full MH 8.5 ([10]; Table S2, full MH, pH 8.5): 32 µg/mL (≈ 24.2 µM)
- MIC E. coli W3110, […] MH at pH 7.4 ([11]; CSV, […] MH at pH 7.4): 4 ug/mL
- MIC E. coli W3110, full MH at pH 7.4 ([11]; CSV, full MH at pH 7.4): 32 ug/mL
- MIC E. coli W3110, full MH at pH 8.5 ([11]; CSV, full MH at pH 8.5): 32 ug/mL
- MIC E. coli W3110 […] 7.4 ([11]; Table S2, […] MH, pH 7.4): 4 µg/mL (≈ 3.03 µM)
- MIC E. coli W3110 […] 8.5 ([11]; Table S2, […] MH, pH 8.5): 2 µg/mL (≈ 1.51 µM)
- MIC E. coli W3110 Full MH 7.4 ([11]; Table S2, full MH, pH 7.4): 32 µg/mL (≈ 24.2 µM)
- MIC E. coli W3110 Full MH 8.5 ([11]; Table S2, full MH, pH 8.5): 32 µg/mL (≈ 24.2 µM)
- CD %α with 5 mM DPC ([12]; DichroWeb, Contin-LL): 11%
- CD %α with 20% TFE ([12]; DichroWeb, Contin-LL): 15%
- CD %α with 5 mM DPC ([12]; Table S2): 11%
- CD %α with 20% TFE ([12]; Table S2): 15%
- Hemolysis [13]: none of them showed any measurable hemolysis
- MHC [13]: >2000 µg/mL
